Test results as given in US5229288A, “Cytotoxicity test method” (priority 1990, dated 1993).
Numbered stars: 1 amine (or outer) side, 2 acyl side, 3 side chain; on linkers, the order of the positions; unused ones are H or OH. Bridge positions count the residues as written; N and C are the ends. Square brackets hold non-standard residues; d marks the D form. Peptide text beside a SMILES is read from it. I, II: the chains in the order shown. Actinocin(9to1) = Cc1c2oc3c(C)ccc(C(=O)[*:1])c3nc-2c(C(=O)[*:2])c(N)c1=O; NMeV = CN[C@H](C(=O)O)C(C)C; Sar = CNCC(=O)O

Experiments:
[1] = tested on: fibroblasts derived from human skin; assay: shrinkage of detached cell sheet to spherical cell aggregate (cytotoxicity test method of the invention), phase contrast microscopy
Experimental: (§1) N-Isopropylacrylamide monomer (here "NIPAAm", a product of Eastman Kodak Co.) 50 g was dissolved in 500 ml benzene. 2,2'-Azobisisobutyronitrile (here "AIBN") 0.2 g was used as the polymerization initiator. Polymerization was carried out at 60° C. for 12 hours in a stream of nitrogen gas with constant agitation. The polymer thus obtained was precipitated in benzene and after decantation the precipitates formed were dissolved in tetrahydrofuran and purified with ethyl ether. […] This mixed solution was poured on the bottom of a commercially available plastic culture dish (Falcon, 35 mm), and it was air-dried aseptically in a clean bench at about 10° C. […] Fibroblasts derived from human skin were suspended in Dulbecco's modified Eagle medium ("DMEM", a product of GIBCO, containing 10% (w/v) calf serum) (cell concentration in the suspension: about 2×10^5 cells/ml). Two milliliters of this cell suspension was incubated at 37° C., and then it was poured in the coated dish which was pre-incubated at 37° C. It was cultured at 37° C. for 3 days in an air/5 volume% CO2 gas incubator. After 3 days at which point the cultured cells covered the surface of the bottom of the dish completely, the dish was taken out from the 37° C. incubator and left to stand at 4° C. on ice. After the cell sheet was completely detached from the surface of the bottom of the dish, the old medium was discarded and the sheet was washed twice with fresh medium at 4° C. to remove the dissolved polymer and the collagen.
(§2) During the shrinking process, the cell aggregate was examined at different times by a phase contrast microscope. Size (average values of longer diameter and shorter diameter) of the cell aggregate was measured, and % shrinkage which is a relative value considering the diameter of the cell sheet immediately after the detachment as 100% was calculated, and the results were plotted against time as shown in FIG. 1.
(§3) After a cell sheet was detached and transferred onto a hydrophobic dish in the same manner as in the Control Example, cycloheximide (here "CH") was added to the culture medium for the cell sheet to bring the concentration to 0.3 and 3μg/ml of medium, respectively. The shrinkage process of the detached cell sheet was examined by the phase contrast microscopy while the cell sheet was cultured in the culture medium containing CH in the hydrophobic dish. […] At the second day after detachment, as shown in FIG. 2A by an arrow sign, the added CH was completely removed by washing the cell aggregate with fresh culture medium and then transferring it into the vessel containing fresh culture medium.
(§4) Twelve hours before a cell sheet was detached from the cell culture substrate and transferred onto a hydrophobic dish in the same manner as in Control Example, actinomycin D (here "AD") was added to the culture medium to bring the concentration to 0.003 and 0.03 μg/ml of medium, respectively. Then the shrinkage process of the detached cell sheet was examined by phase contrast microscopy while the detached cell sheet was cultured in the culture medium containing 0.003 and 0.03 μg/ml (medium) of AD, respectively, in the hydrophobic dish.

[2] = as above; conditions: human, skin fibroblasts
Experimental: as §1, §2, §3, §4

[3] = tested on: fibroblasts derived from human skin; assay: conventional monolayer culture on plastic tissue culture dish, morphological change under phase contrast microscope (Comparative Example); type: cell-based; conditions: 10 μg/ml, monolayer cultured for 3 days before addition
Experimental: (§5) The fibroblasts derived from human skin as used in Example 1 were cultured for 3 days on a plastic tissue culture dish (Falcon, 35 mm), and then cycloheximide and actinomycin D were added, respectively, in such an amount that the concentration of the medium would be 10 μg/ml, and the morphological change of the cells was examined under a phase contrast microscope. […] In contrast, the concentration for the detection of cytotoxicity by the conventional monolayer culture such as shown in this Comparative Example was higher than 10 μg/ml.

[4] = as above; type: cell-based, human; conditions: human, skin fibroblasts; conventional monolayer culture; read-out: concentration for the detection of cytotoxicity by conventional monolayer culture
Experimental: as §5

[5] = CH more than 3 μg/ml, added after detachment and transfer, FIG. 2A
[6] = AD more than 0.03 μg/ml, added twelve hours before detachment, FIG. 2B

SMILES | formation of spherical cell aggregate [1, 5] | shrinkage behavior of phase II (0.5 th to second day after detachment) [1, 5] | shrinkage after removal of CH (reversibility) ([1]; CH removed by washing at second day after detachment, FIG. 2A) | MCC [2] [µg/mL] | morphological change of the cells [3] | MCC [4] [µg/mL] | formation of spherical cell aggregate [1, 6] | shrinkage behavior of phase II (0.5 th to second day after detachment) [1, 6] | shrinkage after removal of AD (reversibility) ([1]; AD removed by washing at second day after detachment, FIG. 2B) | concentration of AD which inhibits phase II relative to that of CH ([1]; ratio AD to CH)
C[C@@H]1C[C@@H]([C@H](O)CC2CC(=O)NC(=O)C2)C(=O)[C@@H](C)C1 [CH, cycloheximide] | no formation of any spherical cell aggregate was observed | completely interrupted | the shrinkage started again | 3 | No morphological change was observed at all | > 10 |  |  |  | 
Cc1c2oc3c(C)ccc(C(=O)N[C@@H]4C(=O)N[C@H](C(C)C)C(=O)N5CCC[C@H]5C(=O)N(C)CC(=O)N(C)[C@@H](C(C)C)C(=O)O[C@@H]4C)c3nc-2c(C(=O)N[C@@H]2C(=O)N[C@H](C(C)C)C(=O)N3CCC[C@H]3C(=O)N(C)CC(=O)N(C)[C@@H](C(C)C)C(=O)O[C@@H]2C)c(N)c1=O [AD, actinomycin D] (I: T[dV]P[Sar][NMeV] / II: T[dV]P[Sar][NMeV]; ester I:1-I:C, II:1-II:C; linker I:N-II:N via Actinocin(9to1)) |  |  |  | 0.03 | No morphological change was observed at all | > 10 | no formation of any spherical cell aggregate was observed | significantly interrupted | the shrinkage started again | about 1/100
